What all share (experiment): in vitro antibacterial activity, MIC by microtitration dilution method
Type in all cases: cell-based

Assay [1] relates to Enterobacter cloacae MA 2646. The settings on record: MA2646, read-out: Minimal Inhibitory Concentration MIC. The source says: (§1) The compounds of the invention display antibacterial activity when tested by the microtitration dilution method as described in Heifetz, et al, Antimicr. Agents & Chemoth., 6, 124 (1974), which is incorporated herein by reference.
(§2) By use of the above referenced method, the followed minimum inhibitory concentration values (MICs in μg/ml) were obtained for representative compounds of the invention.

For a further assay, the system named is Escherichia coli Vogel. The settings on record: read-out: Minimal Inhibitory Concentration MIC.
Source text: as §1, §2

For assay [2], the system named is Klebsiella pneumoniae MGH-2. The conditions noted are these: MGH2, read-out: Minimal Inhibitory Concentration MIC.
Source text: as §1, §2

Another assay relates to Proteus rettgeri M 1771. The settings on record: Providencia rettgeri, M1771, read-out: Minimal Inhibitory Concentration MIC.
Source text: as §1, §2

Assay [3] relates to Pseudomonas aeruginosa UI-18. The conditions noted are these: UI18, read-out: Minimal Inhibitory Concentration MIC.
Source text: as §1, §2

Assay [4] relates to Staphylococcus aureus H 228. The conditions noted are these: H228, read-out: Minimal Inhibitory Concentration MIC.
Source text: as §1, §2

The subject of assay [5] is Staphylococcus aureus UC-76. The conditions noted are these: UC76, read-out: Minimal Inhibitory Concentration MIC.
Source text: as §1, §2

Assay [6] relates to Streptococcus faecalis MGH-2. The conditions noted are these: Enterococcus faecalis, MGH2, read-out: Minimal Inhibitory Concentration MIC.
Source text: as §1, §2

Assay [7] relates to Streptococcus pneumoniae SV-1. The conditions noted are these: SV1, read-out: Minimal Inhibitory Concentration MIC.
Source text: as §1, §2

Assay [8] relates to Streptococcus pyogenes C-203. The source says: Agents & Chemoth., 6, 124 (1974), which is incorporated herein by reference.
The mark [9] stands for this setting: C203, in vitro, Streptococcus pyogenes C-203, read-out: Minimal Inhibitory Concentration MIC.

This passage reports MIC results from patent US4663457A, “1-cyclopropyl-6,7-dihalo-1,4-dihydro-4-oxo-1,8-naphthyridine -3-carboxylic acid and their esters, useful as intermediates for preparing the 7-amine substituted naphthyridines” (Warner-Lambert Company, priority 1985, dated 1987).

Molecules are shown by their SMILES. Converted amounts (≈) assume the structure as drawn. Read-outs that look alike come from different tables or passages of the source.

On to `O=C(O)c1cn(C2CC2)c2c(F)c(N3CCC(O)C3)c(F)cc2c1=O` (stereo not shown) [Ex. 4, 1-Cyclopropyl-6,8-difluoro-1,4-dihydro-7-(3-hydroxy-1-pyrrolidinyl)-4-oxo-3-quinolinecarboxylic acid], for which the MIC was found to be 0.2 µg/mL (≈ 0.571 µM) in assay [1]; 0.1 µg/mL (≈ 0.285 µM) with Escherichia coli Vogel; 0.05 µg/mL (≈ 0.143 µM) in [2]; 0.2 µg/mL (≈ 0.571 µM) with Proteus rettgeri M 1771; 0.8 µg/mL (≈ 2.28 µM) in assay [3]; 0.025 µg/mL (≈ 0.0714 µM) in assay [4]. Moreover, the MIC in assay [5] was found to be 0.013 µg/mL (≈ 0.0371 µM); in assay [6] it was 0.1 µg/mL (≈ 0.285 µM); in assay [7], 0.4 µg/mL (≈ 1.14 µM); in assay [8] (setting [9]) it was 0.4 µg/mL (≈ 1.14 µM).
For `O=C(O)c1cn(C2CC2)c2c(F)c(N3CCNCC3)c(F)cc2c1=O` [Ex. 3, 1-Cyclopropyl-6,8-difluoro-1,4-dihydro-4-oxo-7-(1-piperazinyl)-3-quinolinecarboxylic acid], the MIC is not above 0.1 µg/mL in assay [1]; not above 0.1 µg/mL with Escherichia coli Vogel; not above 0.1 µg/mL in assay [2]; not above 0.1 µg/mL in the assay with Proteus rettgeri M 1771; 0.2 µg/mL (≈ 0.573 µM) in [3]; 0.4 µg/mL (≈ 1.15 µM) in assay [4]. Moreover, the MIC in [5] was not above 0.1 µg/mL; in [6], 0.4 µg/mL (≈ 1.15 µM); in assay [7] it was 0.8 µg/mL (≈ 2.29 µM); in assay [8] (setting [9]) it was 0.4 µg/mL (≈ 1.15 µM).
Regarding `O=C(O)c1cn(C2CC2)c2nc(N3CCNCC3)c(F)cc2c1=O` [Ex. 1, 1-Cyclopropyl-6-fluoro-1,4-dihydro-4-oxo-7-(1-piperazinyl)-1,8-naphthyridine-3-carboxylic acid], the MIC in [1] was 0.1 µg/mL (≈ 0.301 µM); in the assay on Escherichia coli Vogel it was not above 0.1 µg/mL; in assay [2], 0.1 µg/mL (≈ 0.301 µM); in the assay with Proteus rettgeri M 1771 it was 0.2 µg/mL (≈ 0.602 µM); in assay [3] it was 0.2 µg/mL (≈ 0.602 µM); in [4] it was 1.6 µg/mL (≈ 4.81 µM). The MIC in [5] turned out to be 0.4 µg/mL (≈ 1.2 µM); in [6], 1.6 µg/mL (≈ 4.81 µM); in assay [7] it was 1.6 µg/mL (≈ 4.81 µM); in assay [8] (setting [9]) it was 1.6 µg/mL (≈ 4.81 µM).
As to `CN1CCN(c2nc3c(cc2F)c(=O)c(C(=O)O)cn3C2CC2)CC1` [Ex. 2, 1-Cyclopropyl-6-fluoro-1,4-dihydro-7-(4-methyl-1-piperazinyl)-4-oxo-1,8-naphthyridine-3-carboxylic acid], the MIC is not above 0.1 µg/mL in assay [1]; not above 0.1 µg/mL in the assay on Escherichia coli Vogel; not above 0.1 µg/mL in assay [2]; 0.4 µg/mL (≈ 1.15 µM) in the assay with Proteus rettgeri M 1771; 0.4 µg/mL (≈ 1.15 µM) in assay [3]; 0.4 µg/mL (≈ 1.15 µM) in assay [4]. In addition, the MIC is 0.1 µg/mL (≈ 0.289 µM) in [5]; 0.8 µg/mL (≈ 2.31 µM) in [6]; 6.3 µg/mL (≈ 18.2 µM) in assay [7]; 3.1 µg/mL (≈ 8.95 µM) in assay [8] (Streptococcus pyogenes, C203, read-out: Minimal Inhibitory Concentration MIC).
